Experimental findings from ChEMBL document CHEMBL1201862, “PubChem BioAssay data set” (2004) are described below.

SMILES strings stand for the structures.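 Test compounds were applied to cells in 96-well plates for 48 hours at 5 doses. The concentration for 50% growth inhibition is given as GI50.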 The source made the active and inactive calls. No stated cut-off is given here; in the data, active = GI50 up to about 1.1 µM and inactive = higher. Some results are limits rather than exact numbers.

Test systems include MDA-MB-435; SF-295; OVCAR-5; CAKI-1; NCI-H226; HCT-116; HCT-15; OVCAR-3; 786-0; IGROV-1; K562; UACC-62; HL-60; T47D; SR; EKVX; Malme-3M; MCF7; SNB-75.
What all share (test): NCI-60 cell line screen, 48 h

With `Cc1cnc2cc(Cl)ccc2c1SCC(=O)O`, the GI50 in the assay with MDA-MB-435, with SF-295, in the assay on OVCAR-5, in the assay on CAKI-1, in the assay on NCI-H226 and with HCT-116 was > 100 µM (inactive) throughout. Further, the GI50 in the assay on HCT-15 was greater than 100 µM; in the assay with OVCAR-3, > 100 µM (inactive); with 786-0, > 100 µM (inactive); in the assay on IGROV-1 it was > 100 µM (inactive); in the assay with K562 it was > 100 µM (inactive); with UACC-62 it was > 100 µM (inactive). In addition, the GI50 with HL-60, in the assay on T47D, in the assay with SR, in the assay on EKVX and in the assay with Malme-3M was > 100 µM (inactive) each time.

With `Cc1ccc(S(=O)(=O)c2ccc([N+](=O)[O-])o2)cc1`, the GI50 in the assay with MDA-MB-435 is 1.81 µM (inactive); in the assay on SF-295, 19.8 µM (inactive); in the assay on OVCAR-5, 2.01 µM (inactive); with CAKI-1 it was 0.597 µM (active); with MCF7, 2.55 µM (inactive); in the assay with NCI-H226, 10.8 µM (inactive). Besides, the GI50 with HCT-116 is 1.64 µM (inactive); in the assay with HCT-15, 1.17 µM; with OVCAR-3, 1.76 µM (inactive); in the assay on 786-0 it was 1.67 µM (inactive); in the assay on IGROV-1 it was 1.55 µM (inactive); with K562, 1.23 µM (inactive). Moreover, the GI50 in the assay on UACC-62 is 2.32 µM (inactive); with T47D, 2.36 µM (inactive); in the assay on SNB-75, 5.25 µM (inactive); with EKVX, 3.24 µM (inactive); with Malme-3M, 1.08 µM (active).

With `COCCNC1CCC(=O)c2[nH]c3ccccc3c21` (stereo not given), the GI50 with MDA-MB-435, in the assay with SF-295, with OVCAR-5, in the assay with CAKI-1, with MCF7 and in the assay with NCI-H226 was > 100 µM (inactive) in each case. Also, the GI50 with HCT-116 was > 100 µM (inactive); with HCT-15 it was greater than 100 µM; in the assay with OVCAR-3 it was 40.2 µM (inactive); with 786-0, > 100 µM (inactive); in the assay with IGROV-1 it was > 100 µM (inactive); in the assay on K562, > 100 µM (inactive). Besides, the GI50 in the assay on HL-60 was > 100 µM (inactive); with SNB-75, > 100 µM (inactive); with SR, > 100 µM (inactive); with EKVX, 27.1 µM (inactive); in the assay with Malme-3M, > 100 µM (inactive).

For `Cc1c(Cc2ccccc2)n(C(C)OCCN(OC(=O)Oc2ccccc2)C(=O)Oc2ccccc2)c(=O)[nH]c1=O` (stereo not given), the GI50 is 23.4 µM (inactive) in the assay on MDA-MB-435; 16 µM (inactive) in the assay on SF-295; 17.2 µM (inactive) in the assay on OVCAR-5; 18.7 µM (inactive) with CAKI-1; 23.4 µM (inactive) in the assay with MCF7; 20.5 µM (inactive) in the assay on HCT-116. The GI50 with HCT-15 was 14.6 µM; in the assay on OVCAR-3 it was 19 µM (inactive); with 786-0, 18.3 µM (inactive); in the assay with IGROV-1, 14.9 µM (inactive); in the assay with K562 it was 26.9 µM (inactive); in the assay with UACC-62 it was 16.3 µM (inactive). The figures for the GI50 in the assay on SNB-75, with SR and with EKVX were 1.61 µM (inactive), 28.6 µM (inactive) and 14.4 µM (inactive), respectively.

For `Nc1ncnc2c1ncn2CC(OCP(=O)(O)O)Oc1ccccc1` (stereo not given), the GI50 in the assay with MDA-MB-435, in the assay on SF-295, with OVCAR-5, in the assay on CAKI-1, with MCF7 and in the assay with NCI-H226 was > 100 µM (inactive) in each case. The GI50 with HCT-116 was > 100 µM (inactive); with HCT-15, greater than 100 µM; in the assay with OVCAR-3 it was > 100 µM (inactive); in the assay on 786-0, > 100 µM (inactive); with K562 it was > 100 µM (inactive); in the assay on UACC-62, > 100 µM (inactive). Also, the GI50 in the assay with T47D, with SNB-75 and in the assay with EKVX was > 100 µM (inactive) each time.

Take `Clc1nc(Nc2nc3ccccc3[nH]2)nc(Cl)c1Cc1ccccc1`: the GI50 with MDA-MB-435, in the assay on SF-295, in the assay on OVCAR-5, in the assay on CAKI-1, in the assay with NCI-H226 and in the assay on HCT-116 was > 100 µM (inactive) in each case. The GI50 with HCT-15 was 40.2 µM; with 786-0, 45.9 µM (inactive); in the assay with IGROV-1 it was 97.3 µM (inactive); in the assay with K562 it was > 100 µM (inactive); in the assay on UACC-62 it was 72.4 µM (inactive); in the assay on HL-60, > 100 µM (inactive). The GI50 in the assay on T47D was 89.3 µM (inactive); with SNB-75 it was 17.9 µM (inactive); with SR, > 100 µM (inactive); in the assay on EKVX, > 100 µM (inactive); with Malme-3M, > 100 µM (inactive).

Regarding `CC(=O)N(C(C)=O)n1c(-c2ccccc2)n[nH]c1=O`, the GI50 with MDA-MB-435 is > 100 µM (inactive); in the assay with SF-295 it was > 100 µM (inactive); in the assay on OVCAR-5, > 100 µM (inactive); with MCF7, > 100 µM (inactive); with HCT-116, > 100 µM (inactive); in the assay on HCT-15, greater than 100 µM. The GI50 in the assay with OVCAR-3, in the assay with 786-0, with IGROV-1, in the assay with K562, in the assay with UACC-62 and with SNB-75 was > 100 µM (inactive) in each case. The GI50 in the assay with SR and with EKVX was > 100 µM (inactive) each time.

In the case of `O=[N+]([O-])/C(C(Cl)=C(Cl)Cl)=C(\Nc1cccc2cccnc12)Sc1ccccc1`, the GI50 with MDA-MB-435 is 18.7 µM (inactive); in the assay with SF-295, 19 µM (inactive); in the assay on OVCAR-5, 20.8 µM (inactive); in the assay on CAKI-1, 22 µM (inactive); with MCF7, 20.8 µM (inactive); in the assay with NCI-H226, 28.6 µM (inactive). Further, the GI50 was 19.4 µM (inactive) in the assay on HCT-116; 17.5 µM in the assay on HCT-15; 11.4 µM (inactive) in the assay with OVCAR-3; 20 µM (inactive) in the assay with 786-0; 28.4 µM (inactive) in the assay with K562; 11.1 µM (inactive) in the assay on UACC-62. Moreover, the GI50 with T47D is 18.3 µM (inactive); in the assay on SNB-75, 23.7 µM (inactive); in the assay on EKVX, 27.4 µM (inactive); in the assay on Malme-3M it was 23.1 µM (inactive).

In the case of `CCc1nc2ccc(C(F)(F)F)cc2[nH]c1=O`, the GI50 is > 100 µM (inactive) in the assay with MDA-MB-435; > 100 µM (inactive) in the assay with SF-295; > 100 µM (inactive) with OVCAR-5; 80.7 µM (inactive) in the assay with CAKI-1; > 100 µM (inactive) in the assay with MCF7; > 100 µM (inactive) in the assay with NCI-H226. In addition, the GI50 is > 100 µM (inactive) in the assay on HCT-116; greater than 100 µM in the assay on HCT-15; > 100 µM (inactive) in the assay on OVCAR-3; > 100 µM (inactive) in the assay with 786-0; > 100 µM (inactive) with K562; > 100 µM (inactive) in the assay with UACC-62. In addition, the GI50 with HL-60 was > 100 µM (inactive); in the assay with SNB-75, 89.5 µM (inactive); with EKVX it was 44.5 µM (inactive); in the assay with Malme-3M, > 100 µM (inactive).

Consider `O=c1cc(-c2ccccc2)[nH]c2cc(F)c(F)cc12`, for which the GI50 was 0.1 µM (active) in the assay with MDA-MB-435; 1.21 µM (inactive) with SF-295; 1.89 µM (inactive) in the assay with OVCAR-5; > 100 µM (inactive) in the assay with CAKI-1; 0.323 µM (active) with MCF7; 1.55 µM (inactive) with NCI-H226. For the same compound, the GI50 in the assay on HCT-116 was 0.417 µM (active); in the assay on HCT-15, 0.472 µM; with OVCAR-3, 0.34 µM (active); in the assay with 786-0, 0.238 µM (active); in the assay with IGROV-1, 0.634 µM (active); in the assay on K562 it was 0.29 µM (active). Moreover, the GI50 in the assay on UACC-62 was 0.322 µM (active); in the assay with HL-60 it was 0.23 µM (active); in the assay on SNB-75, 0.274 µM (active); in the assay on SR, 0.189 µM (active); in the assay with EKVX, 11.5 µM (inactive); with Malme-3M, > 69.5 µM (inactive).

In the case of `CC(CCc1nc2ccccc2s1)(c1ccc(O)cc1)c1ccc(O)cc1`, the GI50 is 16.1 µM (inactive) in the assay on MDA-MB-435; 15.6 µM (inactive) in the assay with SF-295; 18.1 µM (inactive) in the assay with OVCAR-5; 20.6 µM (inactive) in the assay on CAKI-1; 22.3 µM (inactive) with NCI-H226; 18.2 µM (inactive) with HCT-116. The GI50 in the assay with HCT-15 was 18.4 µM; in the assay on OVCAR-3, 17.5 µM (inactive); in the assay with 786-0 it was 15.1 µM (inactive); in the assay with IGROV-1, 14.2 µM (inactive); with K562 it was 15.4 µM (inactive); in the assay on UACC-62, 15.9 µM (inactive). The GI50 in the assay on T47D was 24.8 µM (inactive); in the assay on SNB-75, 18.4 µM (inactive); in the assay with SR, 13.6 µM (inactive); in the assay with EKVX it was 16.8 µM (inactive); with Malme-3M, 16.5 µM (inactive).

For `CN(C)N1C(=O)c2ccccc2NC1c1ccccc1` (stereo not given), the GI50 in the assay with MDA-MB-435, in the assay with SF-295, with OVCAR-5, with CAKI-1, in the assay with MCF7 and with NCI-H226 was > 100 µM (inactive) in each case. The GI50 was > 100 µM (inactive) in the assay with HCT-116; greater than 100 µM in the assay with HCT-15; > 100 µM (inactive) in the assay with OVCAR-3; > 100 µM (inactive) in the assay on 786-0; > 100 µM (inactive) in the assay with IGROV-1; > 100 µM (inactive) in the assay on UACC-62. Further, the GI50 with T47D, in the assay with SNB-75, in the assay with EKVX and in the assay with Malme-3M was > 100 µM (inactive) throughout.
